This is an account of results in patent publication US8551999B2, “Heterocyclic compound and pharmaceutical composition thereof” (Otsuka Pharmaceutical Co., Ltd., priority 2007, dated 2013).

As to `Br.CCCOc1ccc(CN2CCN(C(=O)c3cc4cc(Oc5ccc(NC(=O)c6ccc(Cl)c(Cl)c6)cn5)ccc4n3C)CC2)cc1` [Example 369, 3,4-Dichloro-N-(6-{1-methyl-2-[4-(4-propoxybenzyl)piperazine-1-carbonyl]-1H-indol-5-yloxy}pyridin-3-yl)benzamide hydrobromide], the melting point is 249 to 252 °C (dec.).
`CCCOc1ccc(CN2CCN(C(=O)c3cc4cc(Oc5ccc(N(C)C(=O)c6ccc(Cl)c(Cl)c6)cn5)ccc4n3C)CC2)cc1.O=C(O)/C=C\C(=O)O` [Example 370, 3,4-Dichloro-N-methyl-N-(6-{1-methyl-2-[4-(4-propoxybenzyl)-piperazine-1-carbonyl]-1H-indol-5-yloxy}pyridin-3-yl)benzamide maleate] displayed a melting point of 163 to 164 °C.
Consider `CCOc1ccc(CN2CCN(C(=O)c3cc4cc(Oc5ccc(N(C)C(=O)c6ccc(Cl)c(Cl)c6)c(C)n5)ccc4n3C)CC2)cc1.O=C(O)/C=C\C(=O)O` [Example 372, 3,4-Dichloro-N-(6-{2-[4-(4-ethoxybenzyl)piperazine-1-carbonyl]-1-methyl-1H-indol-5-yloxy}-2-methylpyridin-3-yl)-N-methylbenzamide maleate], for which the melting point lay in the range of 131 to 132 °C.
For the compound `Br.CCOc1cccc(CN2CCN(C(=O)c3cc4cc(Oc5ccc(NC(=O)c6ccc(Cl)c(Cl)c6)cn5)ccc4n3C)CC2)c1` [Example 373, 3,4-Dichloro-N-(6-{2-[4-(3-ethoxybenzyl)piperazine-1-carbonyl]-1-methyl-1H-indol-5-yloxy}pyridin-3-yl)benzamide hydrobromide], the melting point was in the range of 225 to 227 °C.
In the case of `CCOc1cccc(CN2CCN(C(=O)c3cc4cc(Oc5ccc(N(C)C(=O)c6ccc(Cl)c(Cl)c6)cn5)ccc4n3C)CC2)c1.O=C(O)/C=C\C(=O)O` [Example 374, 3,4-Dichloro-N-(6-{2-[4-(3-ethoxybenzyl)piperazine-1-carbonyl]-1-methyl-1H-indol-5-yloxy}pyridin-3-yl)-N-methylbenzamide maleate], the melting point was 99 to 100 °C.
To `Br.COCc1ccc(CN2CCN(C(=O)c3cc4cc(Oc5ccc(NC(=O)c6ccc(Cl)c(Cl)c6)cn5)ccc4n3C)CC2)cc1` [Example 375, 3,4-Dichloro-N-(6-{2-[4-(4-methoxymethylbenzyl)piperazine-1-carbonyl]-1-methyl-1H-indol-5-yloxy}pyridin-3-yl)benzamide hydrobromide] belongs 244 to 249 °C (dec.).
Turning to `COCc1ccc(CN2CCN(C(=O)c3cc4cc(Oc5ccc(N(C)C(=O)c6ccc(Cl)c(Cl)c6)cn5)ccc4n3C)CC2)cc1.O=C(O)/C=C\C(=O)O` [Example 376, 3,4-Dichloro-N-(6-{2-[4-(4-methoxymethylbenzyl)piperazine-1-carbonyl]-1-methyl-1H-indol-5-yloxy}pyridin-3-yl)-N-methyl-benzamide maleate], the melting point was 100 to 101 °C.
As for `Br.Br.CCOc1ccc(CN2CCN(C(=O)c3cc4cc(Oc5ccc(NC(=O)c6ccc(Cl)c(Cl)c6)cn5)ccc4n3C)CC2)nc1` [Example 378, 3,4-Dichloro-N-(6-{2-[4-(5-ethoxypyridin-2-ylmethyl)piperazine-1-carbonyl]-1-methyl-1H-indol-5-yloxy}pyridin-3-yl)benzamide dihydrobromide], the melting point is 218 to 220 °C.
`COc1ccc(CN2CCN(C(=O)c3cc4cc(Oc5ncc(N(C)C(=O)c6ccc(C(F)(F)F)cc6)cn5)ccc4n3C)CC2)cc1.O=C(O)/C=C\C(=O)O` [Example 381, N-(2-{2-[4-(4-Methoxybenzyl)piperazine-1-carbonyl]-1-methyl-1H-indol-5-yloxy}pyrimidin-5-yl)-N-methyl-4-trifluoromethylbenzamide maleate] registered a melting point of 160 to 161 °C.
`Cn1c(C(=O)N2CCN(Cc3ccccn3)CC2)cc2cc(Oc3ncc(NC(=O)c4ccc(C(F)(F)F)cc4)cn3)ccc21` [Example 382, N-{2-[1-Methyl-2-(4-pyridin-2-ylmethylpiperazine-1-carbonyl)-1H-indol-5-yloxy]pyrimidin-5-yl}-4-trifluoromethylbenzamide] returned a melting point of 181 to 182 °C.
In turn, `CN(C(=O)c1ccc(C(F)(F)F)cc1)c1cnc(Oc2ccc3c(c2)cc(C(=O)N2CCN(Cc4ccc(C#N)cc4)CC2)n3C)nc1.O=C(O)/C=C\C(=O)O` [Example 383, N-(2-{2-[4-(4-Cyanobenzyl)piperazine-1-carbonyl]-1-methyl-1H-indol-5-yloxy}pyrimidin-5-yl)-N-methyl-4-trifluoromethylbenzamide maleate] displayed a melting point of 154 to 156 °C.
Turning to `CCOc1ccc(CN2CCN(C(=O)c3cc4cc(Oc5ncc(NC(=O)c6ccc(Cl)c(Cl)c6)cn5)ccc4n3C)CC2)cc1` [Example 384, 3,4-Dichloro-N-(2-{2-[4-(4-ethoxybenzyl)piperazine-1-carbonyl]-1-methyl-1H-indol-5-yloxy}pyrimidin-5-yl)benzamide], the melting point lay in the range of 156 to 157 °C.
On to `Cn1c(C(=O)N2CCN(Cc3ccccn3)CC2)cc2cc(Oc3ncc(NC(=O)c4ccc(Cl)c(Cl)c4)cn3)ccc21` [Example 385, 3,4-Dichloro-N-{2-[1-methyl-2-(4-pyridin-2-ylmethylpiperazine-1-carbonyl)-1H-indol-5-yloxy]pyrimidin-5-yl}benzamide], for which the melting point was in the range of 161 to 163 °C.
`Br.Br.Cn1c(C(=O)N2CCN(Cc3ccc(C#N)cn3)CC2)cc2cc(Oc3ccc(NC(=O)c4ccc(Cl)c(Cl)c4)cn3)ccc21` [Example 386, 3,4-Dichloro-N-(6-{2-[4-(5-cyanopyridin-2-ylmethyl)piperazine-1-carbonyl]-1-methyl-1H-indol-5-yloxy}pyridin-3-yl)benzamide dihydrobromide] came in with a melting point of 216 to 219 °C.
As for `COc1ccc(CN2CCN(C(=O)c3cc4cc(Oc5ccc(N(C)C(=O)c6ccc(C(F)(F)F)cc6)cn5)ccc4n3C)CC2)nc1.O=C(O)/C=C\C(=O)O` [Example 387, N-(6-{2-[4-(5-Methoxypyridin-2-ylmethyl)piperazine-1-carbonyl]-1-methyl-1H-indol-5-yloxy}pyridin-3-yl)-N-methyl-4-trifluoromethyl-benzamide maleate], the melting point lay in the range of 143 to 144 °C.
To `Br.Br.COc1ccc(CN2CCN(C(=O)c3cc4cc(Oc5ccc(NC(=O)c6ccc(Cl)c(Cl)c6)cn5)ccc4n3C)CC2)nc1` [Example 388, 3,4-Dichloro-N-(6-{2-[4-(5-methoxypyridin-2-ylmethyl)piperazine-1-carbonyl]-1-methyl-1H-indol-5-yloxy}pyridin-3-yl)benzamide dihydrobromide] belongs 223 to 225 °C; to `COc1ccc(CN2CCN(C(=O)c3cc4cc(Oc5ccc(N(C)C(=O)c6ccc(Cl)c(Cl)c6)cn5)ccc4n3C)CC2)nc1.O=C(O)/C=C\C(=O)O` [Example 389, 3,4-Dichloro-N-(6-{2-[4-(5-methoxypyridin-2-ylmethyl)piperazine-1-carbonyl]-1-methyl-1H-indol-5-yloxy}pyridin-3-yl)-N-methyl-benzamide maleate], 155 to 156 °C.
Compound `Br.CCc1ccc(CN2CCN(C(=O)c3cc4cc(Oc5ccc(NC(=O)c6ccc(C(F)(F)F)cc6)cn5)ccc4n3C)CC2)cc1` [Example 390, N-(6-{2-[4-(4-Ethylbenzyl)piperazine-1-carbonyl]-1-methyl-1H-indol-5-yloxy}pyridin-3-yl)-4-trifluoromethylbenzamide hydrobromide] yielded a melting point of 239 to 241 °C.
In turn, `C[C@@H]1CN(Cc2ccccn2)CCN1C(=O)c1cc2cc(Oc3ccc(NC(=O)c4ccc(C(F)(F)F)cc4)cn3)ccc2n1C.O=C(O)C(=O)O.O=C(O)C(=O)O` [Example 392, N-{6-[1-Methyl-2-((R)-2-methyl-4-pyridin-2-ylmethylpiperazine-1-carbonyl)-1H-indol-5-yloxy]pyridin-3-yl}-4-trifluoromethyl-benzamide dioxalate] came in with a melting point of 128 to 130 °C.
The compound `COc1ccc(CN2CCN(C(=O)c3cc4cc(Oc5ccc(NC(=O)c6ccc(C(F)(F)F)cc6)cn5)ccc4n3C)[C@H](C)C2)cc1.O=C(O)C(=O)O` [Example 393, N-(6-{2-[(R)-4-(4-Methoxybenzyl)-2-methylpiperazine-1-carbonyl]-1-methyl-1H-indol-5-yloxy}pyridin-3-yl)-4-trifluoromethyl-benzamide oxalate] yielded a melting point of 161 to 163 °C.
`COc1ccc(CN2CCN(C(=O)c3cc4cc(Oc5ccc(NC(=O)c6ccc(C(F)(F)F)cc6)cn5)ccc4n3C)[C@@H](C)C2)cc1.O=C(O)C(=O)O` [Example 396, N-(6-{2-[(S)-4-(4-Methoxybenzyl)-2-methylpiperazine-1-carbonyl]-1-methyl-1H-indol-5-yloxy}pyridin-3-yl)-4-trifluoromethyl-benzamide oxalate] yielded a melting point of 159 to 160 °C.
For the compound `C[C@H]1CN(Cc2ccccn2)CCN1C(=O)c1cc2cc(Oc3ccc(NC(=O)c4ccc(C(F)(F)F)cc4)cn3)ccc2n1C.O=C(O)C(=O)O.O=C(O)C(=O)O` [Example 397, N-{6-[1-Methyl-2-((S)-2-methyl-4-pyridin-2-ylmethylpiperazine-1-carbonyl)-1H-indol-5-yloxy]pyridin-3-yl}-4-trifluoromethyl-benzamide dioxalate], the melting point lay in the range of 126 to 127 °C.
For `Br.Cn1c(C(=O)N2CCN(Cc3ccc(OC(F)F)cc3)CC2)cc2cc(Oc3ccc(NC(=O)c4ccc(C(F)(F)F)cc4)cn3)ccc21` [Example 400, N-(6-{2-[4-(4-Difluoromethoxybenzyl)piperazine-1-carbonyl]-1-methyl-1H-indol-5-yloxy}pyridin-3-yl)-4-trifluoromethylbenzamide hydrobromide], the melting point fell in the range of 229 to 231 °C.
Consider `Br.Cn1c(C(=O)N2CCN(Cc3ccc(OC(F)(F)C(F)F)cc3)CC2)cc2cc(Oc3ccc(NC(=O)c4ccc(C(F)(F)F)cc4)cn3)ccc21` [Example 402, N-[6-(1-Methyl-2-{4-[4-(1,1,2,2-tetrafluoroethoxy)benzyl]-piperazine-1-carbonyl}-1H-indol-5-yloxy)pyridin-3-yl]-4-tri-fluoromethylbenzamide hydrobromide], for which the melting point lay in the range of 255 to 257 °C.
